According to the NIST ThermoML archive (doi:10.1021/je700266n):

How the values were obtained:
[1] = xn = mol fraction of the nth substance listed; conditions: 101 kPa, Liquid
[2] = 101 kPa, Liquid

CC#N [acetonitrile] + CCCCn1cc[n+](C)c1.F[P-](F)(F)(F)(F)F
[1], x2 = 0
Conditions | mass density [kg/m3]
293.15 K | 782.3
298.15 K | 776.93
303.15 K | 771.44
308.15 K | 765.97
313.15 K | 760.68
323.15 K | 749.73
333.15 K | 738.19
343.15 K | 726.94

CCCO [propan-1-ol]
[2]
Conditions | mass density [kg/m3]
293.15 K | 804.97
298.15 K | 801.01
303.15 K | 796.89
308.15 K | 792.83
313.15 K | 789.07
323.15 K | 780.74
333.15 K | 771.75
343.15 K | 762.86

CCCCn1cc[n+](C)c1.F[B-](F)(F)F [1-butyl-3-methylimidazolium tetrafluoroborate] + CC#N
mass density [kg/m3], [1]
Conditions | x1 = 0.1 | x1 = 0.1997 | x1 = 0.3 | x1 = 0.4005 | x1 = 0.4995 | x1 = 0.6015 | x1 = 0.6998 | x1 = 0.799 | x1 = 0.9012 | x1 = 1
293.15 K | 913.54 | 993.5 | 1047.76 | 1086.95 | 1116.42 | 1138.87 | 1156.73 | 1171.64 | 1185.23 | 1195.71
298.15 K | 908.78 | 989.03 | 1043.55 | 1082.89 | 1112.51 | 1135.03 | 1152.98 | 1167.96 | 1181.58 | 1192.07
303.15 K | 903.94 | 984.51 | 1039.25 | 1078.74 | 1108.44 | 1131.08 | 1149.11 | 1164.16 | 1177.8 | 1188.37
308.15 K | 899.1 | 980.03 | 1034.99 | 1074.62 | 1104.46 | 1127.17 | 1145.29 | 1160.39 | 1174.09 | 1184.72
313.15 K | 894.51 | 975.82 | 1031.1 | 1070.84 | 1100.65 | 1123.64 | 1141.82 | 1157 | 1170.73 | 1181.43
323.15 K | 885.05 | 967.07 | 1022.86 | 1062.98 | 1093.19 | 1116.23 | 1134.55 | 1149.88 | 1163.8 | 1174.49
333.15 K | 874.91 | 957.71 | 1013.98 | 1054.45 | 1084.93 | 1108.14 | 1126.63 | 1142.09 | 1156.07 | 1166.89
343.15 K | 866.42 | 948.85 | 1005.39 | 1046.32 | 1077.27 | 1100.67 | 1119.31 | 1134.92 | 1149.06 | 1159.97

c1ccccc1 [benzene]
[2]
Conditions | mass density [kg/m3]
293.15 K | 878.23
298.15 K | 873.11
303.15 K | 867.59
308.15 K | 862.21
313.15 K | 856.82
323.15 K | 846.05
333.15 K | 835.76
343.15 K | 824.89

CCCO [propan-1-ol] + CCCCn1cc[n+](C)c1.F[B-](F)(F)F
[1], x2 = 0
Conditions | mass density [kg/m3]
293.15 K | 804.97
298.15 K | 801.01
303.15 K | 796.89
308.15 K | 792.83
313.15 K | 789.07
323.15 K | 780.74
333.15 K | 771.75
343.15 K | 762.86

CC#N [acetonitrile] + CCCCn1cc[n+](C)c1.F[B-](F)(F)F
[1], x2 = 0
Conditions | mass density [kg/m3]
293.15 K | 782.3
298.15 K | 776.93
303.15 K | 771.44
308.15 K | 765.97
313.15 K | 760.68
323.15 K | 749.73
333.15 K | 738.19
343.15 K | 726.94

c1ccccc1 [benzene] + CCCCn1cc[n+](C)c1.F[B-](F)(F)F
[1], x2 = 0
Conditions | mass density [kg/m3]
293.15 K | 878.23
298.15 K | 873.11
303.15 K | 867.59
308.15 K | 862.21
313.15 K | 856.82
323.15 K | 846.05
333.15 K | 835.76
343.15 K | 824.89

CCCCn1cc[n+](C)c1.F[P-](F)(F)(F)(F)F [1-butyl-3-methylimidazolium hexafluorophosphate] + CC#N
mass density [kg/m3], [1]
Conditions | x1 = 0.1 | x1 = 0.1997 | x1 = 0.3001 | x1 = 0.4002 | x1 = 0.4995 | x1 = 0.5996 | x1 = 0.7001 | x1 = 0.8 | x1 = 0.8992 | x1 = 1
293.15 K | 974.06 | 1089.47 | 1167.16 | 1221.32 | 1261.57 | 1293.48 | 1318.51 | 1339.25 | 1356.81 | 1371.57
298.15 K | 969.05 | 1084.37 | 1162.48 | 1216.77 | 1257.1 | 1289.08 | 1314.15 | 1334.92 | 1352.54 | 1367.22
303.15 K | 963.9 | 1079.44 | 1157.73 | 1212.1 | 1252.55 | 1284.55 | 1309.69 | 1330.47 | 1348.19 | 1362.86
308.15 K | 958.79 | 1074.57 | 1153.01 | 1207.52 | 1248.07 | 1280.12 | 1305.51 | 1326.23 | 1343.83 | 1358.56
313.15 K | 953.96 | 1070.04 | 1148.67 | 1203.29 | 1243.97 | 1276.12 | 1301.33 | 1322.21 | 1339.74 | 1354.3
323.15 K | 943.95 | 1060.53 | 1139.57 | 1194.5 | 1235.37 | 1267.65 | 1292.68 | 1313.73 | 1331.33 | 1345.98
333.15 K | 933.35 | 1050.42 | 1129.8 | 1184.99 | 1226.09 | 1258.64 | 1283.91 | 1305.14 | 1323.02 | 1337.7
343.15 K | 923.24 | 1040.99 | 1120.72 | 1176.43 | 1217.82 | 1250.62 | 1276.41 | 1297.84 | 1315.94 | 1330.76

CCCCn1cc[n+](C)c1.F[B-](F)(F)F [1-butyl-3-methylimidazolium tetrafluoroborate] + c1ccccc1
mass density [kg/m3], [1]
Conditions | 293.15 K | 298.15 K | 303.15 K | 308.15 K | 313.15 K | 323.15 K | 333.15 K | 343.15 K
x1 = 0.4871 | 1105.2 | 1101.28 | 1097.21 | 1093.23 | 1089.58 | 1081.9 | 1073.73 | 1065.72
x1 = 0.5499 | 1120.99 | 1117.14 | 1113.2 | 1109.3 | 1105.72 | 1098.23 | 1090.17 | 1082.51
x1 = 0.5999 | 1132.31 | 1128.5 | 1124.57 | 1120.71 | 1117.22 | 1109.81 | 1101.75 | 1094.35
x1 = 0.7001 | 1151.84 | 1148.13 | 1144.26 | 1140.47 | 1137.04 | 1129.83 | 1121.95 | 1114.7
x1 = 0.8 | 1168.73 | 1165.02 | 1161.24 | 1157.48 | 1154.13 | 1147.03 | 1139.28 | 1132.17
x1 = 0.899 | 1182.8 | 1179.15 | 1175.38 | 1171.67 | 1168.35 | 1161.36 | 1153.64 | 1146.64
x1 = 0.9498 | 1189.44 | 1185.85 | 1182.12 | 1178.45 | 1175.16 | 1168.19 | 1160.54 | 1153.58
x1 = 1 | 1195.71 | 1192.07 | 1188.37 | 1184.72 | 1181.43 | 1174.49 | 1166.89 | 1159.97

CCCCn1cc[n+](C)c1.F[B-](F)(F)F [1-butyl-3-methylimidazolium tetrafluoroborate] + CCCO
mass density [kg/m3], [1]
Conditions | 293.15 K | 298.15 K | 303.15 K | 308.15 K | 313.15 K | 323.15 K | 333.15 K | 343.15 K
x1 = 0.3999 | 1054.66 | 1051.03 | 1047.17 | 1043.37 | 1039.88 | 1032.41 | 1024.28 | 1016.75
x1 = 0.4498 | 1072.68 | 1068.9 | 1065.03 | 1061.22 | 1057.72 | 1050.32 | 1042.29 | 1034.83
x1 = 0.5001 | 1089.08 | 1085.28 | 1081.39 | 1077.57 | 1074.09 | 1066.73 | 1058.77 | 1051.38
x1 = 0.6001 | 1117.7 | 1113.99 | 1110.15 | 1106.39 | 1103.01 | 1095.73 | 1087.82 | 1080.57
x1 = 0.6978 | 1141.41 | 1137.71 | 1133.91 | 1130.15 | 1126.78 | 1119.64 | 1111.83 | 1104.68
x1 = 0.8002 | 1163 | 1159.35 | 1155.61 | 1151.92 | 1148.61 | 1141.54 | 1133.81 | 1126.78
x1 = 0.9003 | 1180.65 | 1176.99 | 1173.25 | 1169.56 | 1166.26 | 1159.25 | 1151.58 | 1144.59
x1 = 1 | 1195.71 | 1192.07 | 1188.37 | 1184.72 | 1181.43 | 1174.49 | 1166.89 | 1159.97

CCCCn1cc[n+](C)c1.F[P-](F)(F)(F)(F)F [1-butyl-3-methylimidazolium hexafluorophosphate] + c1ccccc1
mass density [kg/m3], [1]
Conditions | 293.15 K | 298.15 K | 303.15 K | 308.15 K | 313.15 K | 323.15 K | 333.15 K | 343.15 K
x1 = 0.34 | 1166.34 | 1161.8 | 1157.16 | 1152.56 | 1148.35 | 1139.5 | 1129.94 | 1120.87
x1 = 0.3995 | 1197.59 | 1193.15 | 1188.62 | 1184.16 | 1180.04 | 1171.45 | 1162.13 | 1153.45
x1 = 0.4999 | 1239.2 | 1234.86 | 1230.38 | 1226.01 | 1222.02 | 1213.65 | 1204.95 | 1196.96
x1 = 0.5999 | 1274.25 | 1269.99 | 1265.61 | 1261.3 | 1257.39 | 1249.14 | 1240.67 | 1233.13
x1 = 0.7 | 1304.29 | 1299.95 | 1295.6 | 1291.34 | 1287.35 | 1279.03 | 1270.76 | 1263.66
x1 = 0.8003 | 1329.79 | 1325.97 | 1321.58 | 1317.28 | 1313.09 | 1304.76 | 1296.68 | 1289.79
x1 = 0.9001 | 1351.51 | 1347.29 | 1342.85 | 1338.55 | 1334.45 | 1326.2 | 1317.85 | 1310.77
x1 = 1 | 1371.57 | 1367.22 | 1362.86 | 1358.56 | 1354.3 | 1345.98 | 1337.7 | 1330.76

c1ccccc1 [benzene] + CCCCn1cc[n+](C)c1.F[P-](F)(F)(F)(F)F
[1], x2 = 0
Conditions | mass density [kg/m3]
293.15 K | 878.23
298.15 K | 873.11
303.15 K | 867.59
308.15 K | 862.21
313.15 K | 856.82
323.15 K | 846.05
333.15 K | 835.76
343.15 K | 824.89
